Measurements: ChEMBL document CHEMBL5512685, “Discovery of a Promising CBP/p300 Degrader XYD129 for the Treatment of Acute Myeloid Leukemia” (J Med Chem, 2024)
pIC50: −log10 of the molar value.

Columns and labels:
MV4-11 [1] = assay: Antiproliferative activity against human MV4-11 cells assessed as inhibition of cell growth incubated for 120 hrs by celltiter glo luminescence analysis; type: functional, cell-based; details: MV4-11, 120 h
MV4-11 [2] = assay: Potency index, ratio of Y08207 IC50 to test compound IC50 for antiproliferative activity against human MV4-11 cells assessed as inhibition of cell growth incubated for 120 hrs by celltiter glo luminescence analysis; type: functional
CREB-binding protein = CREB-binding protein (Homo sapiens, UniProt Q92793); assay: Inhibition of C-terminal biotinylated tetra-acetylated histone peptide H4 binding to His6-fused human CBP bromodomain (R1081 to G1197 residues) incubated for 1 hrs by HTRF assay
[3] = Cytotoxicity against human HL7702 cells assessed as inhibition of cell growth incubated for 72 hrs by celltiter glo luminescence analysis; type: toxicity, cell-based; details: HL7702 (L02) cells
Protein cereblon = Protein cereblon (Homo sapiens, UniProt Q96SW2); assay: Inhibition of biotinylated thalidomide binding to CRBN (40 to 442 residues) (unknown origin) incubated for 1 hrs by HTRF assay
[4] = target: Histone acetyltransferase p300 (Homo sapiens, UniProt Q09472); assay: Inhibition of C-terminal biotinylated tetra-acetylated histone peptide H4 binding to His6-fused human p300 bromodomain (A1040 to G1161 residues) incubated for 1 hrs by HTRF assay
KG-1 = assay: Antiproliferative activity against human KG-1 cells assessed as inhibition of cell growth incubated for 72 hrs by celltiter glo luminescence analysis; type: functional, cell-based; details: KG-1, 72 h
[5] = Antiproliferative activity against human MOLM16 cells assessed as inhibition of cell growth incubated for 72 hrs by celltiter glo luminescence analysis; type: functional, cell-based, MOLM-16; details: MOLM16, 72 h
[6] = target: T1, Protein cereblon/CREB-binding protein (Homo sapiens) (UniProt Q92793+Q96SW2); assay: PROTAC activity at CRBN/CBP in human MOLM16 cells assessed as induction of CBP degradation incubated for 24 hrs by Western blot analysis; type: cell-based; details: dose 0-1000 nM
[7] = target: T2, Protein cereblon/Histone acetyltransferase p300 (Homo sapiens) (UniProt Q09472+Q96SW2); assay: PROTAC activity at CRBN/p300 in human MOLM16 cells assessed as induction of p300 degradation incubated for 24 hrs by Western blot analysis; type: cell-based; details: dose 0-1000 nM
[8] = target: T1, Protein cereblon/CREB-binding protein (Homo sapiens); assay: PROTAC activity at CRBN/CBP in human MOLM16 cells assessed as induction of CBP degradation at 1000 nM incubated for 24 hrs by Western blot analysis relative to control; type: cell-based
[9] = target: T2, Protein cereblon/Histone acetyltransferase p300 (Homo sapiens); assay: PROTAC activity at CRBN/p300 in human MOLM16 cells assessed as induction of p300 degradation at 1000 nM incubated for 24 hrs by Western blot analysis relative to control; type: cell-based

Question: With `CC(=O)c1cc(C(=O)Nc2cc(CO)cc(-c3cnn(C)c3)c2F)c2cc(OCC(=O)NCCCc3cccc4c3C(=O)N(C3CCC(=O)NC3=O)C4=O)ccn12` (stereo not drawn) as the molecule, how does the pIC50 (MV4-11 [1]) read?
Answer: 5.12

Question: With `CC(=O)c1cc(C(=O)Nc2cc(CO)cc(-c3cnn(C)c3)c2F)c2cc(OCCCC(=O)NCCCCCCNc3cccc4c3C(=O)N(C3CCC(=O)NC3=O)C4=O)ccn12` (stereo not drawn) as the molecule, how does the pIC50 (MV4-11 [1]) read?
Answer: < 4.70

Question: With `CC(=O)c1cc(C(=O)Nc2cc(CO)cc(-c3cnn(C)c3)c2F)c2cc(OC3CCN(C(=O)CCOCCNc4cccc5c4C(=O)N(C4CCC(=O)NC4=O)C5=O)CC3)ccn12` (stereo not drawn) as the molecule, how does the pIC50 (MV4-11 [1]) read?
Answer: 5.10

Question: With `CC(=O)c1cc(C(=O)Nc2cc(CO)cc(-c3cnn(C)c3)c2F)c2cc(OC3CCN(C(=O)CCOCCOCCOCCOCCNc4cccc5c4C(=O)N(C4CCC(=O)NC4=O)C5=O)CC3)ccn12` (stereo not drawn) as the molecule, how does the pIC50 (MV4-11 [1]) read?
Answer: 5.31

Question: With `CC(=O)c1cc(C(=O)Nc2cc(CO)cc(-c3cnn(C)c3)c2F)c2cc(OCCCC(=O)NCCNc3ccc4c(c3)C(=O)N(C3CCC(=O)NC3=O)C4=O)ccn12` (stereo not drawn) as the molecule, how does the pIC50 (MV4-11 [1]) read?
Answer: 4.75

Question: Which results are given for `CC(=O)c1cc(C(=O)Nc2cc(CO)cc(-c3cnn(C)c3)c2F)c2cc(OCCCCCCCC(=O)NCC#Cc3cccc4c3C(=O)N(C3CCC(=O)NC3=O)C4=O)ccn12` (stereo not drawn)?
Answer: Ratio IC50 (MV4-11 [2]): ~2; pIC50 (MV4-11 [1]): 5.49

Question: With `CC(=O)c1cc(C(=O)Nc2cc(CO)cc(-c3cnn(C)c3)c2F)c2cc(OC3CCN(C(=O)CCOCCOCCNc4cccc5c4C(=O)N(C4CCC(=O)NC4=O)C5=O)CC3)ccn12` (stereo not drawn) as the molecule, how does the pIC50 (MV4-11 [1]) read?
Answer: 4.95

Question: With `CC(=O)c1cc(C(=O)Nc2cc(CO)cc(-c3cnn(C)c3)c2F)c2cc(OCC(=O)NCC#Cc3cccc4c3C(=O)N(C3CCC(=O)NC3=O)C4=O)ccn12` (stereo not drawn) as the molecule, how does the pIC50 (MV4-11 [1]) read?
Answer: 4.64

Question: With `CC(=O)c1cc(C(=O)Nc2cc(CO)cc(-c3cnn(C)c3)c2F)c2cc(OC3CCN(C(=O)CCOCCOCCOCCNc4cccc5c4C(=O)N(C4CCC(=O)NC4=O)C5=O)CC3)ccn12` (stereo not drawn) as the molecule, how does the pIC50 (MV4-11 [1]) read?
Answer: 5.27

Question: With `CC(=O)c1cc(C(=O)Nc2cc(CO)cc(-c3cnn(C)c3)c2F)c2cc(OCCCCCC(=O)NCCCc3cccc4c3C(=O)N(C3CCC(=O)NC3=O)C4=O)ccn12` (stereo not drawn) as the molecule, how does the pIC50 (CREB-binding protein) read?
Answer: 7.17

Question: What about the IC50 at 72 h [3] of the same molecule?
Answer: > 100 µM

Question: And the pIC50 (Protein cereblon)?
Answer: 6.10

Question: And the pIC50 [4]?
Answer: 7.34

Question: And the “Ratio IC50” value (MV4-11 [2])?
Answer: ~8

Question: And the pIC50 (KG-1)?
Answer: 5.32

Question: What about the pIC50 [5] of the same molecule?
Answer: 7.27

Question: What about the pIC50 (MV4-11 [1]) of the same molecule?
Answer: 6.34

Question: With `CC(=O)c1cc(C(=O)Nc2cc(CO)cc(-c3cnn(C)c3)c2F)c2cc(OCCCC(=O)NCCNc3cccc4c3C(=O)N(C3CCC(=O)NC3=O)C4=O)ccn12` (stereo not drawn) as the molecule, how does the pIC50 (CREB-binding protein) read?
Answer: 7.14

Question: What about the IC50 at 72 h [3] of the same molecule?
Answer: > 100 µM

Question: What about the pIC50 (Protein cereblon) of the same molecule?
Answer: 5.96

Question: And the pIC50 [4]?
Answer: 7.11

Question: And the pIC50 (KG-1)?
Answer: 5.40

Question: What about the Activity [6] of the same molecule?
Answer: Dose-Dependent Effect

Question: What about the Activity [7] of the same molecule?
Answer: Dose-Dependent Effect

Question: What about the pIC50 [5] of the same molecule?
Answer: 7.68

Question: What about the Activity [8] of the same molecule?
Answer: 100%

Question: And the Activity [9]?
Answer: 100%

Question: What about the pIC50 (MV4-11 [1]) of the same molecule?
Answer: 6.38

Question: With `CC(=O)c1cc(C(=O)Nc2cc(CO)cc(-c3cnn(C)c3)c2F)c2cc(OCCCCC(=O)NCC#Cc3cccc4c3C(=O)N(C3CCC(=O)NC3=O)C4=O)ccn12` (stereo not drawn) as the molecule, how does the pIC50 (MV4-11 [1]) read?
Answer: 4.67

Question: Which results are given for `CC(=O)c1cc(C(=O)Nc2cc(CO)cc(-c3cnn(C)c3)c2F)c2cc(OCC(=O)NCCCNc3cccc4c3C(=O)N(C3CCC(=O)NC3=O)C4=O)ccn12` (stereo not drawn)?
Answer: Ratio IC50 (MV4-11 [2]): 6; pIC50 (MV4-11 [1]): 5.97

Question: Which results are given for `CC(=O)c1cc(C(=O)Nc2cc(CO)cc(-c3cnn(C)c3)c2F)c2cc(OCCCCCCC(=O)NCC#Cc3cccc4c3C(=O)N(C3CCC(=O)NC3=O)C4=O)ccn12` (stereo not drawn)?
Answer: Ratio IC50 (MV4-11 [2]): ~2; pIC50 (MV4-11 [1]): 5.41

Question: With `CC(=O)c1cc(C(=O)Nc2cc(CO)cc(-c3cnn(C)c3)c2F)c2cc(OCC(=O)NCCCCNc3ccc4c(c3)C(=O)N(C3CCC(=O)NC3=O)C4=O)ccn12` (stereo not drawn) as the molecule, how does the pIC50 (MV4-11 [1]) read?
Answer: < 4.70

Question: With `CC(=O)c1cc(C(=O)Nc2cc(CO)cc(-c3cnn(C)c3)c2F)c2cc(OCCCC(=O)NCCCc3cccc4c3C(=O)N(C3CCC(=O)NC3=O)C4=O)ccn12` (stereo not drawn) as the molecule, how does the pIC50 (MV4-11 [1]) read?
Answer: 5.83

Question: With `CC(=O)c1cc(C(=O)Nc2cc(CO)cc(-c3cnn(C)c3)c2F)c2cc(OCCCCCCCC(=O)NCCCc3cccc4c3C(=O)N(C3CCC(=O)NC3=O)C4=O)ccn12` (stereo not drawn) as the molecule, how does the pIC50 (MV4-11 [1]) read?
Answer: 5.90

Question: With `CC(=O)c1cc(C(=O)Nc2cc(CO)cc(-c3cnn(C)c3)c2F)c2cc(OCCCCCCC(=O)NCCCc3cccc4c3C(=O)N(C3CCC(=O)NC3=O)C4=O)ccn12` (stereo not drawn) as the molecule, how does the pIC50 (CREB-binding protein) read?
Answer: 7.44

Question: And the pIC50 (Protein cereblon)?
Answer: 5.15

Question: What about the pIC50 [4] of the same molecule?
Answer: 7.29

Question: What about the pIC50 (MV4-11 [1]) of the same molecule?
Answer: 5.99

Question: With `CC(=O)c1cc(C(=O)Nc2cc(CO)cc(-c3cnn(C)c3)c2F)c2cc(O)ccn12` as the molecule, how does the pIC50 (CREB-binding protein) read?
Answer: 8.22

Question: And the IC50 at 72 h [3]?
Answer: 38.3 µM

Question: And the pIC50 (Protein cereblon)?
Answer: < 4.00

Question: And the pIC50 [4]?
Answer: 8.15

Question: What about the pIC50 (KG-1) of the same molecule?
Answer: 4.94

Question: What about the pIC50 [5] of the same molecule?
Answer: 4.87

Question: And the pIC50 (MV4-11 [1])?
Answer: 5.20

Question: With `CC(=O)c1cc(C(=O)Nc2cc(CO)cc(-c3cnn(C)c3)c2F)c2cc(OCCCC(=O)NCC#Cc3cccc4c3C(=O)N(C3CCC(=O)NC3=O)C4=O)ccn12` (stereo not drawn) as the molecule, how does the pIC50 (MV4-11 [1]) read?
Answer: 4.63

Question: With `CC(=O)c1cc(C(=O)Nc2cc(CO)cc(-c3cnn(C)c3)c2F)c2cc(OCCCCC(=O)NCCCc3cccc4c3C(=O)N(C3CCC(=O)NC3=O)C4=O)ccn12` (stereo not drawn) as the molecule, how does the pIC50 (CREB-binding protein) read?
Answer: 7.70

Question: What about the pIC50 (Protein cereblon) of the same molecule?
Answer: 6.33

Question: And the pIC50 [4]?
Answer: 7.66

Question: What about the “Ratio IC50” value (MV4-11 [2]) of the same molecule?
Answer: ~8

Question: What about the pIC50 (MV4-11 [1]) of the same molecule?
Answer: 6.12

Question: With `CC(=O)c1cc(C(=O)Nc2cc(CO)cc(-c3cnn(C)c3)c2F)c2cc(OCCCC(=O)NCCCCNc3cccc4c3C(=O)N(C3CCC(=O)NC3=O)C4=O)ccn12` (stereo not drawn) as the molecule, how does the pIC50 (MV4-11 [1]) read?
Answer: < 4.70

Question: With `CC(=O)c1cc(C(=O)Nc2cc(CO)cc(-c3cnn(C)c3)c2F)c2cc(OCCCC(=O)NCCCCCCCCNc3cccc4c3C(=O)N(C3CCC(=O)NC3=O)C4=O)ccn12` (stereo not drawn) as the molecule, how does the pIC50 (MV4-11 [1]) read?
Answer: < 4.70

Question: What does the source list for `CO[C@H]1CC[C@H](n2c([C@@H]3CCCC(=O)N3c3ccc(F)c(F)c3)nc3cc(-c4c(C)noc4C)ccc32)CC1` [INOBRODIB]?
Answer: IC50 at 72 h [3]: 20 µM; pIC50 (Protein cereblon): < 4.00; pIC50 (KG-1): 4.77; pIC50 [5]: 6.43; pIC50 (MV4-11 [1]): 7.85

Question: With `CC(=O)c1cc(C(=O)Nc2cc(CO)cc(-c3cnn(C)c3)c2F)c2cc(OCCCCCC(=O)NCC#Cc3cccc4c3C(=O)N(C3CCC(=O)NC3=O)C4=O)ccn12` (stereo not drawn) as the molecule, how does the pIC50 (MV4-11 [1]) read?
Answer: 4.88

Question: With `CC(=O)c1cc(C(=O)Nc2cc(CO)cc(-c3cnn(C)c3)c2F)c2cc(OCC(=O)NCCNc3cccc4c3C(=O)N(C3CCC(=O)NC3=O)C4=O)ccn12` (stereo not drawn) as the molecule, how does the pIC50 (MV4-11 [1]) read?
Answer: < 4.70
